Experimental data: the supplement of paper PMC8671470

tested on: KG-1; assay: cell viability (% survival relative to DMSO control, bortezomib = 0%); higher = less cytotoxic; conditions: 1 nM; 72 h
Method in brief: (§1)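 Percent survival figures are means of duplicate wells. They were obtained by CellTiter-Glo luminescence after 10 AML and 5 CML cell lines spent 72 h at 37 °C with 5% CO2 in 384-well plates with compounds at 1, 10, 100, 1000 or 10000 nM. Vehicle was set to 100% and a 10 µM positive control to 0%.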

Compound	cell viability
O=c1cc(-c2ccccc2)oc2cc(O)c(O)c(O)c12 [Baicalein]	96.9%
COC(=O)[C@]12CCC(C)(C)C[C@H]1[C@H]1C(=O)C=C3[C@@]4(C)C=C(C#N)C(=O)C(C)(C)[C@@H]4CC[C@@]3(C)[C@]1(C)CC2 [Bardoxolone methyl]	96.6%
O=c1oc2c(O)c(O)cc3c(=O)oc4c(O)c(O)cc1c4c23 [Benzoaric Acid]	103%
Cc1c(-c2ccc(-c3ccccc3F)cc2)nc2ccc(F)cc2c1C(=O)O [Brequinar]	105%
O=C1O/C(=C/Br)CCC1c1cccc2ccccc12 (stereo unspecified) [Bromoenol Lactone]	97.7%
O=C(O)CCCCC(CCSCc1ccccc1)SCc1ccccc1 (stereo unspecified) [CPI-613]	92.4%
CC(C)c1cc2c(c(O)c1O)[C@@]1(C(=O)O)CCCC(C)(C)[C@@H]1CC2 [Carnosic acid]	92.4%
CCN(CC)CCCC(C)Nc1ccnc2cc(Cl)ccc12 (stereo unspecified) [Chloroquine]	112%
Nc1nc(Cl)nc2c1ncn2[C@H]1C[C@H](O)[C@@H](CO)O1 [Cladribine]	101%
NCCCC(N)(C(=O)O)C(F)F (stereo unspecified) [Difluoromethylornithine]	96.1%

same assay, conditions: 10 nM; 72 h

Compound	cell viability
COc1ccc(S(=O)(=O)N2CCN(S(=O)(=O)c3ccc4c(c3)OCCO4)CC2)cc1 [BML283]	105%
O=c1cc(-c2ccccc2)oc2cc(O)c(O)c(O)c12 [Baicalein]	96.7%
COC(=O)[C@]12CCC(C)(C)C[C@H]1[C@H]1C(=O)C=C3[C@@]4(C)C=C(C#N)C(=O)C(C)(C)[C@@H]4CC[C@@]3(C)[C@]1(C)CC2 [Bardoxolone methyl]	101%
O=c1oc2c(O)c(O)cc3c(=O)oc4c(O)c(O)cc1c4c23 [Benzoaric Acid]	107%
Cc1c(-c2ccc(-c3ccccc3F)cc2)nc2ccc(F)cc2c1C(=O)O [Brequinar]	102%
O=C1O/C(=C/Br)CCC1c1cccc2ccccc12 (stereo unspecified) [Bromoenol Lactone]	97.7%
O=C(O)CCCCC(CCSCc1ccccc1)SCc1ccccc1 (stereo unspecified) [CPI-613]	99.7%
CC(C)c1cc2c(c(O)c1O)[C@@]1(C(=O)O)CCCC(C)(C)[C@@H]1CC2 [Carnosic acid]	96%
CCN(CC)CCCC(C)Nc1ccnc2cc(Cl)ccc12 (stereo unspecified) [Chloroquine]	101%
Nc1nc(Cl)nc2c1ncn2[C@H]1C[C@H](O)[C@@H](CO)O1 [Cladribine]	105%
NCCCC(N)(C(=O)O)C(F)F (stereo unspecified) [Difluoromethylornithine]	88.8%

same assay, conditions: 100 nM; 72 h

Compound	cell viability
COc1ccc(S(=O)(=O)N2CCN(S(=O)(=O)c3ccc4c(c3)OCCO4)CC2)cc1 [BML283]	99%
O=c1cc(-c2ccccc2)oc2cc(O)c(O)c(O)c12 [Baicalein]	112%
COC(=O)[C@]12CCC(C)(C)C[C@H]1[C@H]1C(=O)C=C3[C@@]4(C)C=C(C#N)C(=O)C(C)(C)[C@@H]4CC[C@@]3(C)[C@]1(C)CC2 [Bardoxolone methyl]	117%
O=c1oc2c(O)c(O)cc3c(=O)oc4c(O)c(O)cc1c4c23 [Benzoaric Acid]	96.6%
Cc1c(-c2ccc(-c3ccccc3F)cc2)nc2ccc(F)cc2c1C(=O)O [Brequinar]	95%
O=C1O/C(=C/Br)CCC1c1cccc2ccccc12 (stereo unspecified) [Bromoenol Lactone]	101%
O=C(O)CCCCC(CCSCc1ccccc1)SCc1ccccc1 (stereo unspecified) [CPI-613]	103%
CC(C)c1cc2c(c(O)c1O)[C@@]1(C(=O)O)CCCC(C)(C)[C@@H]1CC2 [Carnosic acid]	96%
CCN(CC)CCCC(C)Nc1ccnc2cc(Cl)ccc12 (stereo unspecified) [Chloroquine]	89.7%
Nc1nc(Cl)nc2c1ncn2[C@H]1C[C@H](O)[C@@H](CO)O1 [Cladribine]	102%
NCCCC(N)(C(=O)O)C(F)F (stereo unspecified) [Difluoromethylornithine]	90.8%

same assay, conditions: 1000 nM; 72 h

Compound	cell viability
COc1ccc(S(=O)(=O)N2CCN(S(=O)(=O)c3ccc4c(c3)OCCO4)CC2)cc1 [BML283]	109%
O=c1cc(-c2ccccc2)oc2cc(O)c(O)c(O)c12 [Baicalein]	87.8%
COC(=O)[C@]12CCC(C)(C)C[C@H]1[C@H]1C(=O)C=C3[C@@]4(C)C=C(C#N)C(=O)C(C)(C)[C@@H]4CC[C@@]3(C)[C@]1(C)CC2 [Bardoxolone methyl]	53.5%
O=c1oc2c(O)c(O)cc3c(=O)oc4c(O)c(O)cc1c4c23 [Benzoaric Acid]	90.4%
Cc1c(-c2ccc(-c3ccccc3F)cc2)nc2ccc(F)cc2c1C(=O)O [Brequinar]	105%
O=C1O/C(=C/Br)CCC1c1cccc2ccccc12 (stereo unspecified) [Bromoenol Lactone]	89.8%
O=C(O)CCCCC(CCSCc1ccccc1)SCc1ccccc1 (stereo unspecified) [CPI-613]	96.5%
CC(C)c1cc2c(c(O)c1O)[C@@]1(C(=O)O)CCCC(C)(C)[C@@H]1CC2 [Carnosic acid]	104%
CCN(CC)CCCC(C)Nc1ccnc2cc(Cl)ccc12 (stereo unspecified) [Chloroquine]	102%
Nc1nc(Cl)nc2c1ncn2[C@H]1C[C@H](O)[C@@H](CO)O1 [Cladribine]	9.9%
NCCCC(N)(C(=O)O)C(F)F (stereo unspecified) [Difluoromethylornithine]	95.1%

same assay, conditions: 10000 nM; 72 h

Compound	cell viability
COc1ccc(S(=O)(=O)N2CCN(S(=O)(=O)c3ccc4c(c3)OCCO4)CC2)cc1 [BML283]	105%
O=c1cc(-c2ccccc2)oc2cc(O)c(O)c(O)c12 [Baicalein]	51%
COC(=O)[C@]12CCC(C)(C)C[C@H]1[C@H]1C(=O)C=C3[C@@]4(C)C=C(C#N)C(=O)C(C)(C)[C@@H]4CC[C@@]3(C)[C@]1(C)CC2 [Bardoxolone methyl]	1.37%
O=c1oc2c(O)c(O)cc3c(=O)oc4c(O)c(O)cc1c4c23 [Benzoaric Acid]	120%
Cc1c(-c2ccc(-c3ccccc3F)cc2)nc2ccc(F)cc2c1C(=O)O [Brequinar]	99%
O=C1O/C(=C/Br)CCC1c1cccc2ccccc12 (stereo unspecified) [Bromoenol Lactone]	56.6%
O=C(O)CCCCC(CCSCc1ccccc1)SCc1ccccc1 (stereo unspecified) [CPI-613]	93.6%
CC(C)c1cc2c(c(O)c1O)[C@@]1(C(=O)O)CCCC(C)(C)[C@@H]1CC2 [Carnosic acid]	103%
CCN(CC)CCCC(C)Nc1ccnc2cc(Cl)ccc12 (stereo unspecified) [Chloroquine]	88.1%
Nc1nc(Cl)nc2c1ncn2[C@H]1C[C@H](O)[C@@H](CO)O1 [Cladribine]	5.04%
NCCCC(N)(C(=O)O)C(F)F (stereo unspecified) [Difluoromethylornithine]	105%

tested on: HEL; assay: as above; conditions: 1 nM; 72 h
Method in brief: as §1

Compound	cell viability
COc1ccc(S(=O)(=O)N2CCN(S(=O)(=O)c3ccc4c(c3)OCCO4)CC2)cc1 [BML283]	107%
O=c1cc(-c2ccccc2)oc2cc(O)c(O)c(O)c12 [Baicalein]	108%
COC(=O)[C@]12CCC(C)(C)C[C@H]1[C@H]1C(=O)C=C3[C@@]4(C)C=C(C#N)C(=O)C(C)(C)[C@@H]4CC[C@@]3(C)[C@]1(C)CC2 [Bardoxolone methyl]	106%
O=c1oc2c(O)c(O)cc3c(=O)oc4c(O)c(O)cc1c4c23 [Benzoaric Acid]	113%
Cc1c(-c2ccc(-c3ccccc3F)cc2)nc2ccc(F)cc2c1C(=O)O [Brequinar]	101%
O=C1O/C(=C/Br)CCC1c1cccc2ccccc12 (stereo unspecified) [Bromoenol Lactone]	105%
O=C(O)CCCCC(CCSCc1ccccc1)SCc1ccccc1 (stereo unspecified) [CPI-613]	109%
